Measurements reported in US9174993B2, “N-[4-(1H-pyrazolo[3,4-b]pyrazin-6-yl)-phenyl]-sulfonamides and their use as pharmaceuticals” (SANOFI, priority 2011, dated 2015).
pIC50: −log10 of the molar value.

Key:
[1] = system: SGK-1 dependent activation of ENaC-currents in A6 cell monolayers; assay: Functional electrophysiological assay, SGK-1 dependent activation of ENaC currents in A6 cell monolayers (Ussing chamber); type: cell-based; conditions: Xenopus laevis, 0.75 h, hypoosmotic shock 45 min, read-out: IC50 for inhibition of ΔI'sc (amiloride-sensitive ENaC-dependent short circuit current)
Method: Materials and methods for Ussing chamber measurement of A6 cells: The renal Xenopus laevis cell line A6 (Rafferty, K. A.; Mass culture of amphibia cells: methods and observations concerning stability of cell type. In: Biology of Amphibian Tumors, edited by M. Mizell. New York: Springer-Verlag, 1969, p. 52-81) was used for the experiments. Cells were grown in cell culture flasks (Nunc) at 28° C. in a humidified atmosphere with 4% CO2. The culture medium contained a 7:3 mixture of Leibovitz's L-15 (Sigma-Aldrich)/Coon's (Sigma-Aldrich) media supplemented with 10% fetal bovine serum (PAA), 20% sterile water, 25 mM NaHCO3 (Sigma-Aldrich), 100 U/ml penicillin (PAA) and 100 μg/ml streptomycin (PAA). The osmolality of the medium was 270 mOsml/kg H2O). […] Filters with confluent A6 cells were transferred into a continuously perfused Ussing-chamber, and electrophysiological parameters were measured under open circuit conditions using a transepithelial clamp amplifier (EP Design). Short circuit current (I′sc) was calculated by Ohm's law. […]
To evaluate the effects of SGK inhibitors on ENaC-mediated transepithelial currents, […] monolayers were first equilibrated for 5 min with isoosmotic Ringer-solution from both the luminal and basolateral side of the cell layer. […] ENaC-dependent I′sc after the hypoosmotic shock (I′schypo) was determined by application of amiloride at the end of the experiment. […]

[2] = system: collagen type X (Col10a1) expression in ATDC5 cells; assay: Chondrocyte hypertrophic differentiation in mouse chondrogenic ATDC5 cells (collagen type X expression); type: cell-based; conditions: 336 h, 14 days differentiation with BMP2 and T3, Col10a1 by quantitative real-time PCR, read-out: IC50 for the inhibition of collagen type X expression
Source text: The ATDC5 cell assay was used as in vitro model to determine the effects of the compounds of the invention on chondrocyte hypertrophic differentiation by monitoring the expression levels of collagen type X (Col10a1) as specific marker of chondrocyte hypertrophy.
Background: ATDC5 cells are a clonal mouse embryonic cell line derived from multipotent AT805 teratocarcinoma cells (Atsumi T, Miwa Y, Kimata K, Ikawa Y.; A chondrogenic cell line derived from a differentiating culture of AT805 teratocarcinoma cells. Cell Differ. Dev. 30 (1990), 109-116). […] Chondrogenic differentiation can be shown by measuring the expression of the cartilage main collagen (Col2a1) and aggrecan (AGC1) and glycosaminoglycan-staining with Alcian Blue within two weeks after insulin-triggered differentiation, and hypertrophic differentiation can be monitored by the expression of collagen type X (Col10a1), a specific marker of chondrocyte hypertrophy within 21 days of in vitro culture. […] SGK-inhibitors were added to differentiating ATDC5 cells for 14 days and Col10a1 gene expression was quantified to determine effects on chondrocyte hypertrophic differentiation. […]
After two weeks of cell culture, RNA was isolated and converted to cDNA for determination of gene expression by quantitative real-time PCR. […] RNA was isolated in 30 μl of pure water and the RNA content measured by UV-spectroscopy (Nanodrop, Peqlab). […]

[3] = biological target: recombinant human SGK-1 enzyme (Homo sapiens, UniProt O00141); assay: SGK-1 enzymatic activity assay (substrate phosphorylation, fluorescein-labeled peptide, lab-chip); type: biochemical; conditions: ATP 10 μM, peptide substrate 1 μM, 60 min at 37° C., read-out: IC50 for inhibition of SGK-1 enzymatic activity
Sequence of recombinant human SGK-1 enzyme (O00141 whole entry, looked up): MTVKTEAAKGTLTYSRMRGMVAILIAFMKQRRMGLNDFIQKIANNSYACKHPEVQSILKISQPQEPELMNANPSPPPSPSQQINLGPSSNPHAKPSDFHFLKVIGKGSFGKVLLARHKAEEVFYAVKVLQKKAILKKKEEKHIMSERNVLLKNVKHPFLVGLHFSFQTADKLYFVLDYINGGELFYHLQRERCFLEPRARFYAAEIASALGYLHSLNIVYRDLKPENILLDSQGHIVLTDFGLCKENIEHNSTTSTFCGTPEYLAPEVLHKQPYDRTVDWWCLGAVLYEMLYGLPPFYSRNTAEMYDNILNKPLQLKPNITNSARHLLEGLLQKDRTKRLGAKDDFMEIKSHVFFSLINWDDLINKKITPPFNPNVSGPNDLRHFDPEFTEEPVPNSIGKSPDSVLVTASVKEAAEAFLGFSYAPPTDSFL
Source text: The synthesized fluorescent labeled peptide substrate contained (5(6)-Carboxyfluorescein)-RPRAATF-NH2. The phosphorylated substrate peptide and non-phosphorylated substrate peptide were separated with caliper life science's lab-chip technology based on a micro fluidics method. All fluid flow was established on the chip by applying a vacuum of a few psi to the waste well transporting fluid from various sources through interconnecting channels. Because the phosphoryl group is doubly negatively charged, under the pressure-driven hydrodynamic flow and the voltage-driven flow within the electric field, the fluorescent labeled peptide substrate and its phosphorylation product appear at different times in the detection window to the detection point. Substrate turnover can thus be determined as the ratio of the product peak area and the sum of substrate peak area and product peak area.
The enzyme reaction was carried out in a buffer containing 25 mM Tris-HCl (pH 7.4), 5 mM MgCl2, 2 mM MnCl2, 2 mM DTT, and 0.03% bovine serum albumine. The enzyme was pre-incubated with the test compound for 30 min at 24° C. The kinase reaction was initiated by addition of the substrate mixture containing the peptide substrate (final concentration 1 μM) and ATP (final concentration 10 μM). After 60 min incubation at 37° C., the enzyme reaction was terminated by adding a buffer containing 100 mM Hepes (pH 7.4) and 35 mM EDTA.
For the determination of the compound dose response, a 10 mM DMSO stock solution was diluted and tested in a ten-point, three-fold dilution series run in duplicate beginning at 30 μM final concentration. Data were analyzed using a four-parameter curve fit with a fixed minimum and maximum experimentally defined as the average positive and negative controls on each plate.

SMILES	pIC50 [3]	also measured
Nc1n[nH]c2nc(-c3ccc(NS(=O)(=O)c4cccc(Cl)c4Cl)cc3)cnc12 [Example 1, N-[4-(3-Amino-1H-pyrazolo[3,4-b]pyrazin-6-yl)phenyl]-2,3-dichloro-benzenesulfonamide]		pIC50 [1]: 5.68
Nc1n[nH]c2nc(-c3ccc(NS(=O)(=O)c4cc(Cl)ccc4F)c(F)c3)cnc12 [Example 6, N-[4-(3-Amino-1H-pyrazolo[3,4-b]pyrazin-6-yl)-2-fluoro-phenyl]-5-chloro-2-fluoro-benzenesulfonamide]		pIC50 [2]: 6.25
Nc1n[nH]c2nc(-c3ccc(NS(=O)(=O)c4ccc(F)cc4Cl)cc3)cnc12 [Example 61, N-[4-(3-Amino-1H-pyrazolo[3,4-b]pyrazin-6-yl)-phenyl]-2-chloro-4-fluoro-benzenesulfonamide]	7.74	
Cc1nn(C)c(Cl)c1S(=O)(=O)Nc1ccc(-c2cnc3c(NS(=O)(=O)c4c(C)nn(C)c4Cl)n[nH]c3n2)cc1 [Example 43, 5-Chloro-N-[4-[3-[(5-chloro-1,3-dimethyl-pyrazol-4-yl)sulfonylamino]-1H-pyrazolo[3,4-b]pyrazin-6-yl]phenyl]-1,3-dimethyl-pyrazole-4-sulfonamide]	5.98	
O=S(=O)(Nc1ccc(-c2cnc3c(NS(=O)(=O)c4cc(Cl)c(F)cc4F)n[nH]c3n2)cc1)c1cc(Cl)c(F)cc1F [Example 42, 5-Chloro-N-[4-[3-[(5-chloro-2,4-difluoro-phenyl)sulfonylamino]-1H-pyrazolo[3,4-b]pyrazin-6-yl]phenyl]-2,4-difluoro-benzenesulfonamide]	6.38	
N#Cc1ccc(F)c(S(=O)(=O)Nc2ccc(-c3cnc4c(N)n[nH]c4n3)cc2)c1 [Example 45, N-[4-(3-Amino-1H-pyrazolo[3,4-b]pyrazin-6-yl)-phenyl]-5-cyano-2-fluoro-benzenesulfonamide]	7.33	
Nc1n[nH]c2nc(-c3ccc(NS(=O)(=O)c4cc(F)cc(F)c4Cl)cc3)cnc12 [Example 60, N-[4-(3-Amino-1H-pyrazolo[3,4-b]pyrazin-6-yl)-phenyl]-2-chloro-3,5-difluoro-benzenesulfonamide]	7.51	
